Each structure is given as a SMILES string.

A short description of data set [1]: Stability of crystalline form A (polymorphic form identification by XRPD on storage). Format: physicochemical. The settings on record: 1 Month, complies with Form A. From the text:
Stability data of crystalline form A of deucravacitinib prepared by the present invention: […]

The nature of data set [2]: Particle size of crystalline form A (Example 38). Type of data set: physicochemical.

For the molecule `[2H]C([2H])([2H])NC(=O)c1nnc(NC(=O)C2CC2)cc1Nc1cccc(-c2ncn(C)n2)c1OC` [crystalline form A of deucravacitinib, 6-(cyclopropanecarboxamido)-4-((2-methoxy-3-(1-methyl-1H-1,2,4-triazol-3-yl)phenyl)amino)-N-(trideuteriomethyl)pyridazine-3-carboxamide], the “Polymorphic Form Identification: XRPD pattern should exhibit characteristic peaks of Form A at 10.1°, 12.4°, 18.9°, 19.3° and 20.4° ± 0.2° 2 theta” value in data set [1] (storage 25 °C/60% RH), in data set [1] (storage 40 °C/75% RH) and in data set [1] (storage 60 °C/90% RH) was “Complies” throughout. Moreover, the “Particle Size D10” value in data set [2] (After jet milling) stood at 1.6 μm; in data set [2] (before jet milling), 9.4 μm. The “Particle Size D50” value came out at 3.0 μm in data set [2] (After jet milling) and 21.64 μm in data set [2] (before jet milling). Further, the results for the “Particle Size D90” value in data set [2] (After jet milling) and in data set [2] (before jet milling) were 5.6 μm and 39.49 μm, respectively.

Values taken from patent publication US20260317307A1, “Process for the Preparation of Deucravacitinib, and Crystalline Forms Thereof” (Alivus Life Sciences Limited, priority 2023, published 2026).
